Source: patent US20090018151A1, “Topical Treatment of Peripheral diabetic complications” (priority 2007, published 2009)

System: diabetic neuropathy
Assay: action of minoxidil on diabetic neuropathy (one foot minoxidil, other foot placebo, blinded)
Assay type: in vivo, human
Description: Example: action of minoxidil on diabetic neuropathy. A subject with a history of type II diabetes and painful symmetric diabetic neuropathy with stable blood sugars for at least 4 weeks prior to beginning therapy had minoxidil applied to one foot and placebo applied to the other foot in a blinded fashion. […] They had not taken any other pain medication 3 months prior to initiating treatment and during treatment. They also had significant skin dryness. Within 2 weeks the subject reported a VAS score improvement of 3 on the foot with the minoxidil treatment.

Nc1cc(N2CCCCC2)nc(N)[n+]1[O-] [minoxidil, 6-(1-piperidinyl)pyrimidine-2,4-diamine 3-oxide] was tested, and the Re-growth of hair (foot treated with minoxidil vs placebo foot, subject had hair loss on the feet up to mid-calf) was “Re-growth of hair was found on the side treated with minoxidil only”, the “Improvement of the dryness of the skin” value (foot treated with minoxidil vs placebo foot, subject had significant skin dryness) was “Improvement of the dryness of the skin was also noted on the side treated with minoxidil only” and the VAS score improvement (person, type II diabetes, painful symmetric diabetic neuropathy, minoxidil applied to one foot, within 2 weeks) was 3.
